By pIC50 is commonly meant the IC50 on a negative log10 scale, so that one unit is a factor of ten. Read a low pIC50 as a high IC50.

pIC50: −log10 of the molar value.

The test deals with T1, Squalene synthase (Rattus norvegicus, UniProt Q02769).
T1 sequence (Q02769 whole entry): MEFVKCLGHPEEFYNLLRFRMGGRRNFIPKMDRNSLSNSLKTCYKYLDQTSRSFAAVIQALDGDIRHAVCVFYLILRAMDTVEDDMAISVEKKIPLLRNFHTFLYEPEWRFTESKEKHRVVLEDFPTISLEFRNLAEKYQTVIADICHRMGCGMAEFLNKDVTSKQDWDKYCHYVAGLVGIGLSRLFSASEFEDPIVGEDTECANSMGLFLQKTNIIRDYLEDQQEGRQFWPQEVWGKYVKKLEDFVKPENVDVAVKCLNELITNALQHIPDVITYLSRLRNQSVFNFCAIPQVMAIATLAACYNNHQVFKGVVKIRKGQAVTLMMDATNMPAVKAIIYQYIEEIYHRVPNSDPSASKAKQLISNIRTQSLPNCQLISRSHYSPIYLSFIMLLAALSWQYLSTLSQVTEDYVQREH
Description: In vitro inhibitory concentration against squalene synthase from male rat liver microsomes. In kind it is tissue-based. On the technique in general: Liver microsomes are a subcellular fraction often used to study metabolism.
Compound `C=C(CC[C@]12O[C@H](C(=O)O)[C@@](O)(C(=O)O)[C@](C(=O)O)(O1)C(O)OC2O)[C@@H](OC(C)=O)[C@H](C)Cc1ccccc1` (stereo not given in full) had a pIC50 of 7.41.
As to `C=C(CC[C@]1(C(N)=O)O[C@H](C(=O)O)[C@@](O)(C(=O)O)[C@](COC(C)=O)(C(=O)O)O1)[C@@H](OC(C)=O)[C@H](C)Cc1ccccc1`, the pIC50 was 6.57.
In the case of `C=C(CC[C@@]12O[C@H](C(=O)O)[C@@](O)(C(=O)O)[C@@](C(=O)O)(COC1=O)O2)[C@@H](OC(C)=O)[C@H](C)Cc1ccccc1` it was 6.70; in that of `C=C(CC[C@]1(C(N)=O)O[C@H](C(=O)O)[C@@](O)(C(=O)O)[C@](COC(=O)/C=C/[C@@H](C)C[C@@H](C)CC)(C(=O)O)O1)[C@@H](OC(C)=O)[C@H](C)Cc1ccccc1`, 7.96; in that of `C=C(CC[C@@]12CC[C@@](C(=O)O)(O1)[C@](O)(C(=O)O)[C@@H](C(=O)O)O2)[C@@H](OC(C)=O)[C@H](C)Cc1ccccc1`, 7.24.

These data come from ChEMBL document CHEMBL1127258, “Structurally simplified squalestatins: monocyclic 1,3-dioxane analogues” (Bioorg Med Chem Lett, 1994).
